Source: PMC3271384 (Molecular Genetics and Metabolism, 2012)
Positions count from the first letter of the chain named.

What was measured:
Assay type in all cases: binding
AGT-Ma [1] = target: T1, AGT-Ma (Homo sapiens, UniProt P21549, D183N); test: CD signal at […] nm titration of apoenzyme
T1 sequence (P21549 1-392 D183N): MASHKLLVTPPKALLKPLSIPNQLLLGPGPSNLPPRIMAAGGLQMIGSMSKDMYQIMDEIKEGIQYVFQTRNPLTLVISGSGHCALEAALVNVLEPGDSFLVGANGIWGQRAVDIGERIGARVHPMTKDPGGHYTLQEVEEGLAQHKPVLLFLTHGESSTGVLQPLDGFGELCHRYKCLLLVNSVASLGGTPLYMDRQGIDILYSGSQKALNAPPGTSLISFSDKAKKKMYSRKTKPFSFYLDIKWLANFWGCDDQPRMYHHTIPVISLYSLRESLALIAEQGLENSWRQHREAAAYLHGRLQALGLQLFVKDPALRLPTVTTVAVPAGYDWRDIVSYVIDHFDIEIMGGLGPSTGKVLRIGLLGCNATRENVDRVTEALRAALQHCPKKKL

AGT-Ma [2] = target: T2, AGT-Ma (Homo sapiens, UniProt P21549, S218L); test: CD signal at […] nm titration of apoenzyme
T2 sequence (P21549 1-392 S218L): T1 sequence (P21549 1-392 D183N) with N183D, S218L

AGT-Ma [3] = target: T3, AGT-Ma (Homo sapiens, UniProt P21549, S158L); test: CD signal at […] nm titration of apoenzyme
T3 sequence (P21549 1-392 S158L): T1 sequence (P21549 1-392 D183N) with S158L, N183D

AGT-Mi [4] = target: T4, AGT-Mi (Homo sapiens, UniProt P21549, G161S/I340M/P11L); test: quenching of intrinsic fluorescence of apoenzyme
T4 sequence (P21549 1-392 P11L/G161S/I340M): T1 sequence (P21549 1-392 D183N) with P11L, G161S, N183D, I340M

AGT-Ma [5] = target: T5, AGT-Ma (Homo sapiens, UniProt P21549, S187F); test: intrinsic fluorescence
T5 sequence (P21549 1-392 S187F): T1 sequence (P21549 1-392 D183N) with N183D, S187F

AGT-Mi [6] = target: T6, AGT-Mi (Homo sapiens, UniProt P21549, G161C/I340M/P11L); test: quenching of intrinsic fluorescence of apoenzyme
T6 sequence (P21549 1-392 P11L/G161C/I340M): T1 sequence (P21549 1-392 D183N) with P11L, G161C, N183D, I340M

AGT-Mi [7] = target: T7, AGT-Mi (Homo sapiens, UniProt P21549, I340M/P11L/W108R); test: CD signal at […] nm titration of apoenzyme
T7 sequence (P21549 1-392 P11L/W108R/I340M): T1 sequence (P21549 1-392 D183N) with P11L, W108R, N183D, I340M

Q: How did the Kd (AGT-Ma [1]) turn out when `Cc1ncc(COP(=O)(O)O)c(C=O)c1O` [PLP] was run?
A: 2100 ± 100 nM

Q: And the Kd (AGT-Ma [2])?
A: 24200 ± 100 nM

Q: And the Kd (AGT-Ma [3])?
A: 272000 ± 47000 nM

Q: And the Kd (AGT-Mi [4])?
A: 460 ± 70 nM

Q: What about the Kd (AGT-Ma [5]) of the same molecule?
A: < 10 nM

Q: What about the Kd (AGT-Mi [6]) of the same molecule?
A: 560 ± 90 nM

Q: What about the Kd (AGT-Mi [7]) of the same molecule?
A: 96000 ± 19000 nM
